From PubChem BioAssay AID1919014 (Molecular Pharmacology Branch, DTP, NCI, 2023)
“And” between values parts separate entries of the source, which are not always exact repeats. Identical values can stand only once.

System: NCI-H1341 complex spheroids, percent test/control
Assay: Anticancer human tumor NCI-H1341 cell line growth inhibition [AhR];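 further: spheroids exposed to agents for seven days before readout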
Conditions: for viability, T/C: stronger effect = lower value
In short: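 Agents were dosed in half-log steps down from roughly clinical Cmax, or from 10 microM where Cmax was unknown, alone and with AhR antagonists. Read-out: percent test/control growth of tumor spheroids containing HUVEC and MSC stromal cells.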

[1] = curve of first compound, second compound 0.1 µM
[2] = curve of first compound, second compound 0.316 µM
[3] = curve of first compound, second compound 1 µM
[4] = curve of first compound, second compound 3.16 µM
[5] = curve of first compound, second compound 10 µM
[6] = second compound 0.1 µM, first compound 0.0316 µM
[7] = second compound 0.1 µM, first compound 0.1 µM
[8] = second compound 0.1 µM, first compound 0.316 µM
[9] = second compound 0.1 µM, first compound 1 µM
[10] = second compound 0.1 µM, first compound 3.16 µM
[11] = second compound 0.1 µM, first compound 10 µM
[12] = second compound 0.316 µM, first compound 0.0316 µM
[13] = second compound 0.316 µM, first compound 0.1 µM
[14] = second compound 0.316 µM, first compound 0.316 µM
[15] = second compound 0.316 µM, first compound 1 µM
[16] = second compound 0.316 µM, first compound 3.16 µM
[17] = second compound 0.316 µM, first compound 10 µM
[18] = second compound 1 µM, first compound 0.0316 µM
[19] = second compound 1 µM, first compound 0.1 µM
[20] = second compound 1 µM, first compound 0.316 µM
[21] = second compound 1 µM, first compound 1 µM
[22] = second compound 1 µM, first compound 3.16 µM
[23] = second compound 1 µM, first compound 10 µM
[24] = second compound 3.16 µM, first compound 0.0316 µM
[25] = second compound 3.16 µM, first compound 0.1 µM
[26] = second compound 3.16 µM, first compound 0.316 µM
[27] = second compound 3.16 µM, first compound 1 µM
[28] = second compound 3.16 µM, first compound 3.16 µM
[29] = second compound 3.16 µM, first compound 10 µM
[30] = second compound 10 µM, first compound 0.0316 µM
[31] = second compound 10 µM, first compound 0.1 µM
[32] = second compound 10 µM, first compound 0.316 µM
[33] = second compound 10 µM, first compound 1 µM
[34] = second compound 10 µM, first compound 3.16 µM
[35] = second compound 10 µM, first compound 10 µM

For `CC(C)CC(NC(=O)C(Cc1ccccc1)NC(=O)c1cnccn1)B(O)O` (configuration not stated) + CC(CO)NC(=O)c1cc(-c2ccc(Cl)cc2)nn(-c2cnn(C)c2)c1=O, the IC50 [1] was 4.61 nM, the IC50 [2] was 4.3 nM and the IC50 [3] was 4.31 nM. The IC50 [4] was 3.55 nM, the IC50 [5] was 3.81 nM and the viability, T/C (second compound 0.1 µM, first compound 0.000949 µM) was 89.8%. For the same compound, the viability, T/C (second compound 0.1 µM, first compound 0.003 µM) was 79.2%, the viability, T/C (second compound 0.1 µM, first compound 0.00949 µM) was 0.86% and the viability, T/C (second compound 0.1 µM, first compound 0.03 µM) was 0.08%. It also gave a viability, T/C (second compound 0.1 µM, first compound 0.0949 µM) of 0.36%, a viability, T/C (second compound 0.1 µM, first compound 0.3 µM) of 0.13% and a viability, T/C (second compound 0.316 µM, first compound 0.000949 µM) of 88.1%. The viability, T/C (second compound 0.316 µM, first compound 0.003 µM) was 72.6%, the viability, T/C (second compound 0.316 µM, first compound 0.00949 µM) was 0.3% and the viability, T/C (second compound 0.316 µM, first compound 0.03 µM) was 0.06%. For the same compound, the viability, T/C (second compound 0.316 µM, first compound 0.0949 µM) was 0.04%, the viability, T/C (second compound 0.316 µM, first compound 0.3 µM) was 0.68% and the viability, T/C (second compound 1 µM, first compound 0.000949 µM) was 70.3%. For the same compound, the viability, T/C (second compound 1 µM, first compound 0.003 µM) was 75%, the viability, T/C (second compound 1 µM, first compound 0.00949 µM) was 0.31% and the viability, T/C (second compound 1 µM, first compound 0.03 µM) was 0.09%. It also gave a viability, T/C (second compound 1 µM, first compound 0.0949 µM) of 1.13%, a viability, T/C (second compound 1 µM, first compound 0.3 µM) of 0.28% and a viability, T/C (second compound 3.16 µM, first compound 0.000949 µM) of 86.3%. The viability, T/C (second compound 3.16 µM, first compound 0.003 µM) was 58.4%, the viability, T/C (second compound 3.16 µM, first compound 0.00949 µM) was 0.91% and the viability, T/C (second compound 3.16 µM, first compound 0.03 µM) was 0.08%. It also gave a viability, T/C (second compound 3.16 µM, first compound 0.0949 µM) of 0.98%, a viability, T/C (second compound 3.16 µM, first compound 0.3 µM) of 0.6% and a viability, T/C (second compound 10 µM, first compound 0.000949 µM) of 83.4%. For the same compound, the viability, T/C (second compound 10 µM, first compound 0.003 µM) was 62.9%, the viability, T/C (second compound 10 µM, first compound 0.00949 µM) was 1.02% and the viability, T/C (second compound 10 µM, first compound 0.03 µM) was 0.15%. It also gave a viability, T/C (second compound 10 µM, first compound 0.0949 µM) of 0.12% and a viability, T/C (second compound 10 µM, first compound 0.3 µM) of 0.45%.

For `NS(=O)(=O)OCC1CC(n2ccc3c(NC4CCc5ccccc54)ncnc32)CC1O` (configuration not stated), the viability, T/C (compound 0.0316 µM) was 52.1% and 44.4% and 32.1%, the viability, T/C (compound 0.1 µM) was 41.7% and 37.3% and 22.6% and the viability, T/C (compound 0.316 µM) was 27.1% and 18% and 11.2%. For the same compound, the viability, T/C (compound 1 µM) was 12.3% and 12.1% and 6.23%, the viability, T/C (compound 3.16 µM) was 11.9% and 7.68% and 3.37% and the viability, T/C (compound 10 µM) was 11.4% and 4.21% and 2.28%. The IC50 (curve of compound) was 39.2 nM and < 31.6 nM.

In the case of `CC1(C)CCC(CN2CCN(c3ccc(C(=O)NS(=O)(=O)c4ccc(NCC5CCOCC5)c([N+](=O)[O-])c4)c(Oc4cnc5[nH]ccc5c4)c3)CC2)=C(c2ccc(Cl)cc2)C1` + Cc1cncc(-c2nc(NCCc3c[nH]c4ccccc34)c3ncn(C(C)C)c3n2)c1, the IC50 [1] is reported as greater than 10000 nM, the IC50 [2] is reported as greater than 10000 nM and the IC50 [3] is reported as greater than 10000 nM. For the same compound, the IC50 [4] was greater than 10000 nM, the IC50 [5] was less than 31.6 nM and the viability, T/C [6] was 94.9%. For the same compound, the viability, T/C [7] was 77.2%, the viability, T/C [8] was 81.5% and the viability, T/C [9] was 77%. For the same compound, the viability, T/C [10] was 64.9%, the viability, T/C [11] was 68.3% and the viability, T/C [12] was 86.6%. The viability, T/C [13] was 77.9%, the viability, T/C [14] was 71.3% and the viability, T/C [15] was 73.3%. For the same compound, the viability, T/C [16] was 66.1%, the viability, T/C [17] was 78.1% and the viability, T/C [18] was 79.4%. It also gave a viability, T/C [19] of 80.9%, a viability, T/C [20] of 81.6% and a viability, T/C [21] of 71.8%. The viability, T/C [22] was 63.9%, the viability, T/C [23] was 60.3% and the viability, T/C [24] was 70.6%. The viability, T/C [25] was 66.7%, the viability, T/C [26] was 66.1% and the viability, T/C [27] was 53.9%. It also gave a viability, T/C [28] of 64.1%, a viability, T/C [29] of 70.5% and a viability, T/C [30] of 49.9%. The viability, T/C [31] was 43.3%, the viability, T/C [32] was 45.2% and the viability, T/C [33] was 39.8%. It also gave a viability, T/C [34] of 42% and a viability, T/C [35] of 41.9%.

`COc1ccc([C@@H](O)c2cc(-c3ncnc4cc(N5CCOCC5)ccc34)c(F)cc2Cl)nn1` + Cc1ccccc1N=Nc1ccc(NC(=O)c2ccnn2C)c(C)c1 was tested, and the IC50 [1] was 903 nM, the IC50 [2] was 791 nM and the IC50 [3] was 631 nM. The IC50 [4] was 461 nM, the IC50 [5] was less than 31.6 nM and the viability, T/C [6] was 98.3%. The viability, T/C [7] was 91.6%, the viability, T/C [8] was 70.8% and the viability, T/C [9] was 51.5%. For the same compound, the viability, T/C [10] was 19.3%, the viability, T/C [11] was 8.09% and the viability, T/C [12] was 87.2%. The viability, T/C [13] was 68.9%, the viability, T/C [14] was 70.6% and the viability, T/C [15] was 46.4%. It also gave a viability, T/C [16] of 19.9%, a viability, T/C [17] of 8.42% and a viability, T/C [18] of 75.3%. The viability, T/C [19] was 67.9%, the viability, T/C [20] was 62.8% and the viability, T/C [21] was 42%. It also gave a viability, T/C [22] of 21.6%, a viability, T/C [23] of 8.86% and a viability, T/C [24] of 73%. It also gave a viability, T/C [25] of 59.9%, a viability, T/C [26] of 58.7% and a viability, T/C [27] of 38.5%. It also gave a viability, T/C [28] of 18%, a viability, T/C [29] of 5.82% and a viability, T/C [30] of 47.2%. The viability, T/C [31] was 51.8%, the viability, T/C [32] was 39.3% and the viability, T/C [33] was 29.2%. The viability, T/C [34] was 14.3% and the viability, T/C [35] was 7.84%.

Compound `NS(=O)(=O)OCC1CC(n2ccc3c(NC4CCc5ccccc54)ncnc32)CC1O` (configuration not stated) + Cc1ccccc1N=Nc1ccc(NC(=O)c2ccnn2C)c(C)c1 has an IC50 [1] of 113 nM, an IC50 [2] of 63.3 nM and an IC50 [3] of 111 nM. It also gave an IC50 [4] of 110 nM, an IC50 [5] of less than 31.6 nM and a viability, T/C [6] of 51.6%. The viability, T/C [7] was 56.5%, the viability, T/C [8] was 16.4% and the viability, T/C [9] was 7.98%. It also gave a viability, T/C [10] of 7.35%, a viability, T/C [11] of 6.54% and a viability, T/C [12] of 59%. It also gave a viability, T/C [13] of 44.2%, a viability, T/C [14] of 16.8% and a viability, T/C [15] of 9.99%. For the same compound, the viability, T/C [16] was 7.77%, the viability, T/C [17] was 6.89% and the viability, T/C [18] was 61.5%. It also gave a viability, T/C [19] of 53.1%, a viability, T/C [20] of 22.4% and a viability, T/C [21] of 11.4%. It also gave a viability, T/C [22] of 8.79%, a viability, T/C [23] of 6.95% and a viability, T/C [24] of 51.5%. For the same compound, the viability, T/C [25] was 53.4%, the viability, T/C [26] was 23.6% and the viability, T/C [27] was 11%. The viability, T/C [28] was 7.99%, the viability, T/C [29] was 6.85% and the viability, T/C [30] was 40.4%. For the same compound, the viability, T/C [31] was 35.7%, the viability, T/C [32] was 20.2% and the viability, T/C [33] was 10.3%. For the same compound, the viability, T/C [34] was 8.16% and the viability, T/C [35] was 5.99%.
